Where two headings read alike, the source gives them in different places.
Key:
[1] = biological target: T1, HCV NS3-4A serine protease (full-length NS3-4A protein, genotype 1a, strain HCV-1) (Hepatitis C virus genotype 1a, UniProt P26664); test: HCV NS3-4A protease assay; type: biochemical; conditions: Protease IC50
T1 construct: using the full-length NS3-4A protein (genotype 1a, strain HCV-1)
Procedure: The inhibitory activity of certain compounds of Table A against HCV NS3-4A serine protease is determined in a homogenous assay using the full-length NS3-4A protein (genotype 1a, strain HCV-1) and a commercially available internally-quenched fluorogenic peptide substrate as described by Taliani, M., et al. 1996 Anal. Biochem. 240:60-67, which is incorporated by reference in its entirety.

[2] = in vivo; parameters: species or system Sprague Dawley rats; conditions: rat; for Cmax: po, 10 mg/kg
Procedure: Certain compounds of Table A and Comparative Example 1 (Compound A-7 of copending international patent application serial no. PCT/EP08/063,460) are administered as a solution orally via gavage at 10 mg/kg to Sprague Dawley rats at a dosing volume of 10 ml/kg. Samples are collected via a surgically implanted cannula at selected timepoints deemed necessary to characterize pharmacokinetic parameters. Blood samples are placed on wet ice and spun down to plasma within 5 minutes of timepoint collection. Plasma samples are frozen until bioanalytical analysis.
Certain compounds of Table A and Comparative Example 1 are administered intravenously into a surgically implanted cannula as a solution at 1 mg/kg to Sprague Dawley rats at a dosing volume of […]. Samples are collected via another surgically implanted cannula at selected timepoints deemed necessary to characterize pharmacokinetic parameters. Blood samples are placed on wet ice and spun down to plasma within 5 minutes of timepoint collection. Plasma samples are frozen until bioanalytical analysis.

[3] = Measurement of thermodynamic solubility; type: physicochemical; conditions: thermodynamic from solid, read-out: solubility in water
Procedure: Thermodynamic solubility for the compounds of the invention listed in Table C is measured by a published literature procedure, e.g., Liping Zhou, et al., J. Pharm. Sci (2007) 96(11): 3052-3071.
The DMSO stocks of test compounds previously dissolved in 25 μL of DMSO (˜10 mM) in mini-prep vial (MPV: Whatman, with PVDF filter and 0.45 μm pore size) chamber were evaporated via a GeneVac HT-4X evaporator for approximately 1 hour, at the guard temperature of 30° C. An aliquot of 250 μL buffer solution (pH 1.0 or 6.8) was added into each MPV chamber containing powders reconstituted from DMSO stock solutions. The MPV filter plungers were pushed down into the chamber until the membrane of the filter plunger slightly touched the surface of the buffer to promote equilibrium between the two compartments and to minimize the adsorption due to non-specific binding of samples during the subsequent 24-hr incubation (at 600 RPM at room temperature). Immediately after the 24-hr incubation, the plungers were further pushed down to the bottom of the chambers. More solution was pushed through the membrane and entered the plunger compartment. The filter/chamber assemblies were then put on a shaker for another 30 minutes at 600 RPM. Afterwards, filtrates were further diluted (1:10) with 50/50 acetonitrile/water solvent followed by a thorough mixing process. Both plates with diluted and undiluted filtrates were analyzed by HPLC and quantified against the four-point standard dilution curve of the same test compound (5 μM, 35 μM, 65 μM and 100 μM, respectively). In the current study, solubility reflects the average of triplicate samples tested at each pH.

[4] = pH 1, simulated gastric fluid, pH of about 1
[5] = pH 6.8, aqueous buffer, pH of about 6.8

T1 sequence (P26664 1658-1711): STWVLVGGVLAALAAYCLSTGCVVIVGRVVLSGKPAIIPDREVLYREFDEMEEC
T1 sequence (P26664 1027-1657): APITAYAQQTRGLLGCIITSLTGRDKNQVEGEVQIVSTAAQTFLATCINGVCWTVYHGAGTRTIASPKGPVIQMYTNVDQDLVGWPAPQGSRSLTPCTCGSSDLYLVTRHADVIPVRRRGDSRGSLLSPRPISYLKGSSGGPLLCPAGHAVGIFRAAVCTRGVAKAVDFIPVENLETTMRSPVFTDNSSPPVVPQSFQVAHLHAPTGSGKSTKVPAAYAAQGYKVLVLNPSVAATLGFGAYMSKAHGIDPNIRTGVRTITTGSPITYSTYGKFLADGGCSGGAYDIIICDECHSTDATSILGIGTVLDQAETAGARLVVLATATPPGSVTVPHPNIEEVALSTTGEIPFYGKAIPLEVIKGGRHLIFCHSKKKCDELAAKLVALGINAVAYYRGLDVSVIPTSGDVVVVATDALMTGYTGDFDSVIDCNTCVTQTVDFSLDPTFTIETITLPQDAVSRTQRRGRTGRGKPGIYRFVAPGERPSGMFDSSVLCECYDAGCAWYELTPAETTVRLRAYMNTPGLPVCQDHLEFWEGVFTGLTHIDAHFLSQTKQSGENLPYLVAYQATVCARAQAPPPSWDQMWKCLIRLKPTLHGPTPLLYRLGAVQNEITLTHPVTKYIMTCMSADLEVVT

Structure (SMILES): C=C[C@@H]1C[C@]1(NC(=O)[C@@H]1C[C@@]2(CN1C(=O)[C@@H](NC(=O)[C@@H](NC(=O)[C@@H]1CCCCN1C(C)C)C1CCCCC1)C(C)(C)C)C(C)(C)C21CCC1)C(=O)NS(=O)(=O)C1(C)CC1 [Compound 63, (5R,8S)-7-[(2S)-2-{[(2S)-2-cyclohexyl-2-({[(2S)-1-isopropylpiperidin-2-yl]carbonyl}amino)acetyl]amino}-3,3-dimethylbutanoyl]-10,10-dimethyl-N-[(1R,2S)-1-{[(1-methylcyclopropyl)sulfonyl]carbamoyl}-2-vinylcyclopropyl]-7-azadispiro[3.0.4.1]decane-8-carboxamide]
- IC50 [1]: 1.8 nM
- Cmax ([2]; Sprague Dawley): 320 nM
- solubility at 24 h [3, 4]: ≥ 100 µM
- solubility at 24 h [3, 5]: ≥ 30 µM

Structure (SMILES): C=C[C@@H]1C[C@]1(NC(=O)[C@@H]1C[C@@]2(CN1C(=O)[C@@H](NC(=O)[C@@H](NC(=O)[C@@H]1CCCCN1C(C)C)C1CCCCC1)C(C)(C)C)C(C)(C)C21CCC1)C(=O)NS(=O)(=O)C1(CCC)CC1 [Compound 68, (5R,8S)-7-[(2S)-2-{[(2S)-2-cyclohexyl-2-({[(2S)-1-isopropylpiperidin-2-yl]carbonyl}amino)acetyl]amino}-3,3-dimethylbutanoyl]-10,10-dimethyl-N-[(1R,2S)-1-{[(1-propylcyclopropyl)sulfonyl]carbamoyl}-2-vinylcyclopropyl]-7-azadispiro[3.0.4.1]decane-8-carboxamide]
- IC50 [1]: 4 nM
- Cmax ([2]; Sprague Dawley): 348 nM
- solubility at 24 h [3, 4]: ≥ 100 µM
- solubility at 24 h [3, 5]: ≥ 30 µM

Structure (SMILES): CC[C@@H]1C[C@]1(NC(=O)[C@@H]1C[C@@]2(CN1C(=O)[C@@H](NC(=O)[C@@H](NC(=O)[C@@H]1CCCCN1C(C)C)C1CCCCC1)C(C)(C)C)C(C)(C)C21CCC1)C(=O)NS(=O)(=O)C1(C)CC1 [Compound 70, (5R,8S)-7-[(2S)-2-{[(2S)-2-cyclohexyl-2-({[(2S)-1-isopropylpiperidin-2-yl]carbonyl}amino)acetyl]amino}-3,3-dimethylbutanoyl]-N-[(1R,2R)-2-ethyl-1-{[(1-methylcyclopropyl)sulfonyl]carbamoyl}cyclopropyl]-10,10-dimethyl-7-azadispiro[3.0.4.1]decane-8-carboxamide]
- IC50 [1]: 2 nM
- Cmax ([2]; Sprague Dawley): 130 nM
- solubility at 24 h [3, 4]: ≥ 100 µM
- solubility at 24 h [3, 5]: ≥ 30 µM

Structure (SMILES): C=C[C@@H]1C[C@]1(NC(=O)[C@@H]1C[C@@]2(CN1C(=O)[C@@H](NC(=O)[C@@H](NC(=O)[C@@H]1CCCN1CC)C1CCCCC1)C(C)(C)C)C(C)(C)C21CCC1)C(=O)NS(=O)(=O)C1(C)CC1 [Compound 71, (5R,8S)-7-[(2S)-2-{[(2S)-2-cyclohexyl-2-({[(2S)-1-ethylpyrrolidin-2-yl]carbonyl}amino)acetyl]amino}-3,3-dimethylbutanoyl]-10,10-dimethyl-N-[(1R,2S)-1-{[(1-methylcyclopropyl)sulfonyl]carbamoyl}-2-vinylcyclopropyl]-7-azadispiro[3.0.4.1]decane-8-carboxamide]
- IC50 [1]: 0.3 nM
- solubility at 24 h [3, 4]: ≥ 100 µM
- solubility at 24 h [3, 5]: ≥ 30 µM

Structure (SMILES): C=C[C@@H]1C[C@]1(NC(=O)[C@@H]1C[C@@]2(CN1C(=O)[C@@H](NC(=O)[C@@H](NC(=O)[C@H]1CCCCN1C(C)C)C1CCCCC1)C(C)(C)C)C(C)(C)C21CCC1)C(=O)NS(=O)(=O)C1(C)CC1 [Compound 74, (5R,8S)-7-[(2S)-2-{[(2S)-2-cyclohexyl-2-({[(2R)-1-isopropylpiperidin-2-yl]carbonyl}amino)acetyl]amino}-3,3-dimethylbutanoyl]-10,10-dimethyl-N-[(1R,2S)-1-{[(1-methylcyclopropyl)sulfonyl]carbamoyl}-2-vinylcyclopropyl]-7-azadispiro[3.0.4.1]decane-8-carboxamide]
- IC50 [1]: 0.8 nM
- solubility at 24 h [3, 4]: ≥ 100 µM
- solubility at 24 h [3, 5]: ≥ 30 µM

Structure (SMILES): CCCC1(S(=O)(=O)NC(=O)[C@@]2(NC(=O)[C@@H]3C[C@@]4(CN3C(=O)[C@@H](NC(=O)[C@@H](NC(=O)[C@@H]3CCCN3CC)C3CCCCC3)C(C)(C)C)C(C)(C)C43CCC3)C[C@H]2CC)CC1 [Compound 75, (5R,8S)-7-[(2S)-2-{[(2S)-2-cyclohexyl-2-({[(2S)-1-ethylpyrrolidin-2-yl]carbonyl}amino)acetyl]amino}-3,3-dimethylbutanoyl]-N-[(1R,2R)-2-ethyl-1-{[(1-propylcyclopropyl)sulfonyl]carbamoyl}cyclopropyl]-10,10-dimethyl-7-azadispiro[3.0.4.1]decane-8-carboxamide]
- IC50 [1]: 7 nM
- Cmax ([2]; Sprague Dawley): 289 nM
- solubility at 24 h [3, 4]: ≥ 100 µM
- solubility at 24 h [3, 5]: ≥ 30 µM

Structure (SMILES): CCCC1(S(=O)(=O)NC(=O)[C@@]2(NC(=O)[C@@H]3C[C@@]4(CN3C(=O)[C@@H](NC(=O)[C@@H](NC(=O)[C@@H]3CCCCN3CC)C3CCCCC3)C(C)(C)C)C(C)(C)C43CCC3)C[C@H]2CC)CC1 [Compound 76, (5R,8S)-7-[(2S)-2-{[(2S)-2-cyclohexyl-2-({[(2S)-1-ethylpiperidin-2-yl]carbonyl}amino)acetyl]amino}-3,3-dimethylbutanoyl]-N-[(1R,2R)-2-ethyl-1-{[(1-propylcyclopropyl)sulfonyl]carbamoyl}cyclopropyl]-10,10-dimethyl-7-azadispiro[3.0.4.1]decane-8-carboxamide]
- IC50 [1]: 6 nM
- solubility at 24 h [3, 4]: ≥ 100 µM
- solubility at 24 h [3, 5]: ≥ 30 µM

Structure (SMILES): CCCC1(S(=O)(=O)NC(=O)[C@@]2(NC(=O)[C@@H]3C[C@@]4(CN3C(=O)[C@@H](NC(=O)[C@@H](NC(=O)[C@@H]3CCCCN3C(C)C)C3CCCCC3)C(C)(C)C)C(C)(C)C43CCC3)C[C@H]2CC)CC1 [Compound 77, (5R,8S)-7-[(2S)-2-{[(2S)-2-cyclohexyl-2-({[(2S)-1-isopropylpiperidin-2-yl]carbonyl}amino)acetyl]amino}-3,3-dimethylbutanoyl]-N-[(1R,2R)-2-ethyl-1-{[(1-propylcyclopropyl)sulfonyl]carbamoyl}cyclopropyl]-10,10-dimethyl-7-azadispiro[3.0.4.1]decane-8-carboxamide]
- IC50 [1]: 2 nM
- solubility at 24 h [3, 4]: ≥ 100 µM
- solubility at 24 h [3, 5]: ≥ 30 µM

Structure (SMILES): CC[C@@H]1C[C@]1(NC(=O)[C@@H]1C[C@@]2(CN1C(=O)[C@@H](NC(=O)[C@@H](NC(=O)[C@@H]1CCCN1CC)C1CCCCC1)C(C)(C)C)C(C)(C)C21CCC1)C(=O)NS(=O)(=O)C1(C)CC1 [Compound 81, (5R,8S)-7-[(2S)-2-{[(2S)-2-cyclohexyl-2-({[(2S)-1-ethylpyrrolidin-2-yl]carbonyl}amino)acetyl]amino}-3,3-dimethylbutanoyl]-N-[(1R,2R)-2-ethyl-1-{[(1-methylcyclopropyl)sulfonyl]carbamoyl}cyclopropyl]-10,10-dimethyl-7-azadispiro[3.0.4.1]decane-8-carboxamide]
- IC50 [1]: 0.6 nM
- bioavailability ([2]; Sprague Dawley): 22%
- Cmax ([2]; Sprague Dawley): 692 nM
- solubility at 24 h [3, 4]: ≥ 100 µM
- solubility at 24 h [3, 5]: ≥ 30 µM

Structure (SMILES): CC[C@@H]1C[C@]1(NC(=O)[C@@H]1C[C@@]2(CN1C(=O)[C@@H](NC(=O)[C@@H](NC(=O)[C@@H]1CCCN1C(C)C)C1CCCCC1)C(C)(C)C)C(C)(C)C21CCC1)C(=O)NS(=O)(=O)C1(C)CC1 [Compound 82, (5R,8S)-7-[(2S)-2-{[(2S)-2-cyclohexyl-2-({[(2S)-1-isopropylpyrrolidin-2-yl]carbonyl}amino)acetyl]amino}-3,3-dimethylbutanoyl]-N-[(1R,2R)-2-ethyl-1-{[(1-methylcyclopropyl)sulfonyl]carbamoyl}cyclopropyl]-10,10-dimethyl-7-azadispiro[3.0.4.1]decane-8-carboxamide]
- IC50 [1]: 2.4 nM
- solubility at 24 h [3, 4]: ≥ 100 µM
- solubility at 24 h [3, 5]: ≥ 30 µM

Structure (SMILES): C=C[C@@H]1C[C@]1(NC(=O)[C@@H]1C[C@@]2(CN1C(=O)[C@@H](NC(=O)OC(C)(C)C)C(C)C)C(C)(C)C21CCC1)C(=O)NS(=O)(=O)C1CC1 [compound 1, tert-butyl [(1S)-1-{[(5R,8S)-8-({(1R,2S)-1-[(cyclopropylsulfonyl)carba-moyl]-2-vinylcyclopropyl}carbamoyl)-10,10-dimethyl-7-azadispiro[3.0.4.1]dec-7-yl]carbonyl}-2-methylpropyl]carbamate, reference compound]
- bioavailability [2]: 2%

From US20110182850A1, “ORGANIC COMPOUNDS AND THEIR USES” (priority 2009, published 2011)
